Laboratory results taken from US20160024127A1, “COMPOUNDS AND USES THEREOF FOR THE MODULATION OF HEMOGLOBIN” (GLOBAL BLOOD THERAPEUTICS, INC., priority 2013, published 2016).

Experiment: Pharmacokinetics after oral administration of the monophosphate prodrug to rats (blood and plasma)
Type: in vivo
Method: A sodium salt of the monophosphate prodrug compound (Formula (V-B)) was administered orally to rats in a dose of 10 mg/kg (5 mL/kg). The vehicle administered was dimethylacetamide:PEG400:30% HβCD (5:25:70). The pharmacokinetic results are tabulated below and graphically illustrated in FIG. 1.

| Structure (SMILES) | whole blood Cmax following administration of the compound of formula (III), compared with Cmax after the monophosphate prodrug (compound of formula (III) administered at the same dose) | conversion of the prodrug to compound of formula (III) (oral, 10 mg/kg, rats) |
| --- | --- | --- |
| CC(C)n1nccc1-c1ncccc1COc1cccc(O)c1C=O [Formula (III), 2-hydroxy-6-([2-[1-(propan-2-yl)-1H-pyrazol-5-yl]pyridin-3-yl]methoxy)benzaldehyde] | equivalent |  |
| CC(C)n1nccc1-c1ncccc1COc1cccc(OP(=O)(O)O)c1C=O [Formula (V-B), 2-formyl-3-((2-(1-isopropyl-1H-pyraol-5-yl)pyridin-3-yl)methoxy)phenyl dihydrogen phosphate] |  | efficiently con veiled to compound of formula (III) |
